Where a name gives a salt, the structure may show the parent alone. Read-outs that look alike come from different tables or passages of the source.
How the values were obtained:
[1] = system: JAK1-dependent STAT6 phosphorylation downstream of IL-13 stimulation in TF-1 human erythroleukemia cells; assay: cells; settings: TF-1, read-out: IL-13-pSTAT6 IC50
[2] = system: JAK1-dependent STAT6 phosphorylation downstream of IL-13 stimulation in BEAS-2B human bronchial epithelial cells; assay: cells; settings: read-out: IL13-pSTAT6 BEASB2B IC50
[3] = molecular target: T1, isolated recombinant JAK2 kinase domain (Homo sapiens (Human), UniProt O60674); settings: read-out: JAK2 Ki
T1 sequence (O60674 849-1124): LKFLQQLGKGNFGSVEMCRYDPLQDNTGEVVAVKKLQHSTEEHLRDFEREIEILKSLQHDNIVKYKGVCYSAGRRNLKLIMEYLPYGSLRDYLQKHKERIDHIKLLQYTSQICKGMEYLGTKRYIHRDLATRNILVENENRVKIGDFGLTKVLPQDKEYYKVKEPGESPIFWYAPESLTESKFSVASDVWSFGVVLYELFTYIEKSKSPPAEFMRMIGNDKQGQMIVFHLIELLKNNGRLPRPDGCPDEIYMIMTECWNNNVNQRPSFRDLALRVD

[4] = molecular target: T1, isolated recombinant JAK2 kinase domain; assay: biochemical
[5] = isolated recombinant JAK2 kinase domain, 25 μM ATP

| IC50 [1] [nM] | Ki [3, 5] [nM] | Ki [4] [nM] | SMILES | IC50 [2] [nM] | Ki [3] [nM] |
| --- | --- | --- | --- | --- | --- |
| 89.9 | 0.39 |  | CCOC(=O)CC1(c2ccc(Cl)cc2)CCN(c2cccn3nc(Nc4ccc(C(=O)N(C)C5CCN(C)CC5)cc4)nc23)CC1 [Example 1-254] | 661 |  |
|  | 0.38 |  | CC(=O)NCC1(c2ccc(Cl)cc2)CCN(c2cccn3nc(Nc4ccc(C(=O)N(C)C5CCN(C)CC5)cc4)nc23)CC1 [Example 1-268, 4-([8-[4-(4-chlorophenyl)-4-(acetamidomethyl)piperidin-1-yl]-[1,2,4]triazolo[1,5-a]pyridin-2-yl]amino)-N-methyl-N-(1-methylpiperidin-4-yl)benzamide] | 56.2 |  |
| 7.9 | 0.17 |  | CN1CCCC12CN(C(=O)c1ccc(Nc3nc4c(N5CCC(CO)(c6ccc(Cl)cc6)CC5)cccn4n3)cc1)C2 [Example 1-274, [4-[[8-[4-(4-chlorophenyl)-4-(hydroxymethyl)-1-piperidyl]-[1,2,4]triazolo[1,5-a]pyridin-2-yl]amino]phenyl]-(5-methyl-2,5-diazaspiro[3.4]octan-2-yl)methanone] | 28.9 |  |
|  | 0.57 |  | CN1CCC(N(C)C(=O)c2ccc(Nc3nc4c(N5CCC(CN)(c6ccc(Cl)cc6)CC5)cccn4n3)cc2)CC1 [Example 1-265, 4-([8-[4-(aminomethyl)-4-(4-chlorophenyl)piperidin-1-yl]-[1,2,4]triazolo[1,5-a]-pyridin-2-yl]amino)-N-methyl-N-(1-methylpiperidin-4-yl)benzamide] | 94.8 |  |
|  |  |  | CN1CCC(N(C)C(=O)c2ccc(Nc3nc4c(N5CCC(CO)(c6ccc(C(F)F)cc6)CC5)cccn4n3)cc2)CC1 [Example 1-267, 4-[(8-[4-[4-(difluoromethyl)phenyl]-4-(hydroxymethyl)piperidin-1-yl]-[1,2,4]triazolo[1,5-a]pyridin-2-yl)amino]-N-methyl-N-(1-methylpiperidin-4-yl)benzamide] | 32.4 | 0.25 |
|  | 0.3 |  | COC(=O)CCN1CCN(C(=O)Cn2cc(Nc3nc4c(N5CCC(CO)(c6ccc(Cl)cc6)CC5)cccn4n3)cn2)CC1 [Example 1-290, Methyl 3-(4-[2-[4-([8-[4-(4-chlorophenyl)-4-(hydroxymethyl)piperidin-1-yl]-[1,2,4]triazolo[1,5-a]pyridin-2-yl]amino)-1H-pyrazol-1-yl]acetyl]piperazin-1-yl)propanoate] | 5.9 |  |
|  | 7.84 |  | CN1CCC(N(C)C(=O)c2ccc(Nc3nc4c(N5CCC(O)(c6ccccc6)CC5)cccn4n3)cc2)CC1 [Example 1-43, 4-[[8-(4-hydroxy-4-phenyl-1-piperidyl)-[1,2,4]triazolo[1,5-a]pyridin-2-yl]amino]-N-methyl-N-(1-methyl-4-piperidyl)benzamide] | 968 |  |
|  |  | 63.2 | CC(=O)NC1CCN(c2cccn3nc(Nc4ccc(C(=O)N(C)C5CCN(C)CC5)cc4)nc23)CC1 [Example 1-9, 4-[[8-(4-acetamido-1-piperidyl)-[1,2,4]triazolo[1,5-a]pyridin-2-yl]amino]-N-methyl-N-(1-methyl-4-piperidyl)benzamide; hydrochloride] |  |  |
|  |  | 32 | CN1CCC(N(C)C(=O)c2ccc(Nc3nc4c(N5CCC(O)(c6cccnc6)CC5)cccn4n3)cc2)CC1 [Example 1-19, 4-[[8-[4-hydroxy-4-(3-pyridyl)-1-piperidyl]-[1,2,4]triazolo[1,5-a]pyridin-2-yl]amino]-N-methyl-N-(1-methyl-4-piperidyl)benzamide] |  |  |
|  |  |  | CSc1ccc(C2(CO)CCN(c3cccn4nc(Nc5ccc(C(=O)N(C)C6CCN(C)CC6)cc5)nc34)CC2)cc1 [Example 1-251, 4-([8-[4-(hydroxymethyl)-4-[4-(methylsulfanyl)phenyl]piperidin-1-yl]-[1,2,4]triazolo[1,5-a]pyridin-2-yl]amino)-N-methyl-N-(1-methylpiperidin-4-yl)benzamide] | 56.6 | 0.41 |
| 56.3 | 0.69 |  | CN1CCC(N(C)C(=O)c2ccc(Nc3nc4c(N5CCC(CC(F)F)(c6ccc(Cl)cc6)CC5)cccn4n3)cc2)CC1 [Example 1-256, 4-([8-[4-(4-chlorophenyl)-4-(2,2-difluoroethyl)piperidin-1-yl]-[1,2,4]triazolo[1,5-a]pyridin-2-yl]amino)-N-methyl-N-(1-methylpiperidin-4-yl)benzamide] | 426 |  |
|  | 0.5 |  | CC(O)C1(c2ccc(Cl)cc2)CCN(c2cccn3nc(Nc4ccc(C(=O)N(C)C5CCN(C)CC5)cc4)nc23)CC1 (stereo not drawn) [Example 1-252, 4-[[8-[4-(4-chlorophenyl)-4-(1-hydroxyethyl)-1-piperidyl]-[1,2,4]triazolo[1,5-a]pyridin-2-yl]amino]-N-methyl-N-(1-methyl-4-piperidyl)benzamide] | 90.2 |  |
| 5.3 |  |  | O=C(NCCCN1CCOCC1)c1ccc(Nc2nc3c(C4=CCN(C(=O)CCC(F)(F)F)CC4)cccn3n2)cc1 [Example 2-271, N-(3-morpholinopropyl)-4-[[8-[1-(4,4,4-trifluorobutanoyl)-3,6-dihydro-2H-pyridin-4-yl]-[1,2,4]triazolo[1,5-a]pyridin-2-yl]amino]benzamide] | 15.9 |  |
| 3.5 |  |  | CN1CCCC12CN(C(=O)c1ccc(Nc3nc4c(C5=CCN(C(=O)CCC(F)(F)F)CC5)cccn4n3)cc1)C2 [Example 2-40, 4,4,4-trifluoro-1-[4-[2-[4-(5-methyl-2,5-diazaspiro[3.4]octane-2-carbonyl)anilino]-[1,2,4]triazolo[1,5-a]pyridin-8-yl]-3,6-dihydro-2H-pyridin-1-yl]butan-1-one] | 18.7 |  |
| 15.9 | 0.2 |  | CN1CCC(N(C)C(=O)c2ccc(Nc3nc4c(N5CCC(CC#N)(c6ccccc6)CC5)cccn4n3)cc2)CC1 [Example 1-41, 4-[[8-[4-(cyanomethyl)-4-phenyl-1-piperidyl]-[1,2,4]triazolo[1,5-a]pyridin-2-yl]amino]-N-methyl-N-(1-methyl-4-piperidyl)benzamide] | 42 |  |
|  | 1.29 |  | CO/N=C/C1(c2ccc(Cl)cc2)CCN(c2cccn3nc(Nc4ccc(C(=O)N(C)C5CCN(C)CC5)cc4)nc23)CC1 [Example 1-250] | 732 |  |
| 107 |  |  | CN(C)c1cc(CC2CCN(C(=O)c3ccc(Nc4nc5c(N6CCC(O)(c7ccc(Cl)cc7)CC6)cccn5n4)cc3)C2)ncn1 (stereo not drawn) [Example 1-151, [4-[[8-[4-(4-chlorophenyl)-4-hydroxy-1-piperidyl]-[1,2,4]triazolo[1,5-a]pyridin-2-yl]amino]phenyl]-[3-[[6-(dimethylamino)pyrimidin-4-yl]methyl]pyrrolidin-1-yl]methanone] | 167 |  |
| 16.3 |  |  | C[C@@H]1CN(CCNC(=O)c2ccc(Nc3nc4c(N5CCC(CO)(c6ccc(Cl)cc6)CC5)cccn4n3)cc2)C[C@H](C)O1 [Example 1-278, 4-[[8-[4-(4-chlorophenyl)-4-(hydroxymethyl)-1-piperidyl]-[1,2,4]triazolo[1,5-a]pyridin-2-yl]amino]-N-[2-[(2R,6S)-2,6-dimethylmorpholin-4-yl]ethyl]benzamide] | 37.6 |  |
| 6.9 |  |  | O=C(CCC(F)(F)F)N1CC=C(c2cccn3nc(Nc4ccc(C(=O)N5CCC(N6CCOCC6)CC5)cc4)nc23)CC1 [Example 2-210, 4,4,4-trifluoro-1-[4-[2-[4-(4-morpholinopiperidine-1-carbonyl)anilino]-[1,2,4]triazolo[1,5-a]pyridin-8-yl]-3,6-dihydro-2H-pyridin-1-yl]butan-1-one] | 45.6 |  |
| 4.3 |  |  | CC(CN1CCCCC1)NC(=O)c1ccc(Nc2nc3c(C4=CCN(C(=O)CCC(F)(F)F)CC4)cccn3n2)cc1 (stereo not drawn) [Example 2-334, N-[1-methyl-2-(1-piperidyl)ethyl]-4-[[8-[1-(4,4,4-trifluorobutanoyl)-3,6-dihydro-2H-pyridin-4-yl]-[1,2,4]triazolo[1,5-a]pyridin-2-yl]amino]benzamide] | 30.7 |  |
| 33.9 |  |  | CN1CCC(N(C)C(=O)c2ccc(Nc3nc4c(N5CCC(O)(c6ccc(Cl)cc6)CC5)cccn4n3)cc2)CC1 [Example 1-17, 4-[[8-[4-(4-chlorophenyl)-4-hydroxy-1-piperidyl]-[1,2,4]triazolo[1,5-a]pyridin-2-yl]amino]-N-methyl-N-(1-methyl-4-piperidyl)benzamide] | 153 |  |
| 45 |  |  | CN1CCCC1CCNC(=O)c1ccc(Nc2nc3c(N4CCC(O)(c5ccc(Cl)cc5)CC4)cccn3n2)cc1 (stereo not drawn) [Example 1-102, 4-[[8-[4-(4-chlorophenyl)-4-hydroxy-1-piperidyl]-[1,2,4]triazolo[1,5-a]pyridin-2-yl]amino]-N-[2-(1-methylpyrrolidin-2-yl)ethyl]benzamide] | 54.7 |  |
| 23.1 |  |  | C[C@H]1CN(CCNC(=O)c2ccc(Nc3nc4c(N5CCC(CO)(c6ccc(Cl)cc6)CC5)cccn4n3)cc2)C[C@H](C)O1 [Example 1-277, 4-[[8-[4-(4-chlorophenyl)-4-(hydroxymethyl)-1-piperidyl]-[1,2,4]triazolo[1,5-a]pyridin-2-yl]amino]-N-[2-[(2S,6S)-2,6-dimethylmorpholin-4-yl]ethyl]benzamide] | 73.3 |  |
| 16.4 | 0.63 |  | O=C(c1ccc(Nc2nc3c(N4CCC(O)(c5ccc(Cl)cc5)CC4)cccn3n2)cc1)N1CCC(N2CCOCC2)CC1 [Example 1-125, [4-[[8-[4-(4-chlorophenyl)-4-hydroxy-1-piperidyl]-[1,2,4]triazolo[1,5-a]pyridin-2-yl]amino]phenyl]-(4-morpholino-1-piperidyl)methanone] | 42.8 |  |

| SMILES | IC50 [1] [nM] | Ki [3, 5] [nM] | Ki [4] [nM] | IC50 [2] [nM] | Ki [3] [nM] |
| --- | --- | --- | --- | --- | --- |
| CN1CCC(N(C)C(=O)c2ccc(Nc3nc4c(N5CCC(CCC#N)(c6ccc(Cl)cc6)CC5)cccn4n3)cc2)CC1 [Example 1-247, 4-{8-[4-(4-Chloro-phenyl)-4-(2-cyano-ethyl)-piperidin-1-yl]-1,8a-dihydro[1,2,4]triazolo[1,5-a]pyridine-2-ylamino}-N-methyl-N-(1-methyl-piperidin-4-yl)-benzamide] | 18.4 | 0.33 |  | 115 |  |

From patent US9873709B2 (priority 2013, dated 2018)
